Test results reported in patent US6946480B2, “Glutaminyl based DPIV inhibitors” (priority 2002, dated 2005).

Legend:
[1] = Plasma stability (half-life of inhibitory potency in human plasma); assay type: in vitro ADME
Method: In order to investigate the stability of glutaminyl pyrrolidine or glutaminyl thiazolidine in human plasma, the activity of DPIV in plasma was determined at a defined time. The average DPIV activity in human plasma was determined as 43.69 U/ml. In the working solution, the plasma was diluted in 0.9% NaCl to fix the DPIV activity level at 25 U/ml.
Plasma and glutaminyl pyrrolidine or glutaminyl thiazolidine in different concentrations (5*10^−5, 2.5*10^−5, 1.25*10^−5M in plasma) were incubated at 37° C. At defined time points samples were taken using a pipette roboter (Gilson 215, Liquid handler, Gilson) and transferred in a microtiter plate containing 5*10^−5M glycylprolylaminomethylcoumarine in 0.9% NaCl+015% Brij per well. After 6 min the reaction was stopped by addition of isoleucylthiazolidine (5*10^−5M in 0.9% NaCl solution).
Fluorescence measurement was performed against 0.9% NaCl in plasma (reference standard) using a plate reader (HTS7000plus, Applied Biosystems, Weiterstadt, Germany). The half-life of the inhibitory potency of glutaminyl pyrrolidine or glutaminyl thiazolidine was calculated by plotting the enzyme activity versus reaction time.

diabetic Zucker rats = test: Dose escalation study with oral glucose tolerance test in fatty Zucker rats; assay type: in vivo, Zucker rats (fa/fa); conditions: for effect on glucose tolerance (OGTT): 2 g/kg glucose
Method: N=30 male Zucker rats (fa/fa), mean age 11 weeks (5-12 weeks), mean body weight 350 g (150-400 g), were purchased from Charles River (Sulzfeld, Germany). After delivery they were kept for >12 weeks until nearly all fatty Zucker rats had the characteristics of manifest diabetes mellitus. A group of N=8 animals were recruited for testing three escalating doses of glutaminyl pyrrolidine vs. placebo (saline).
Animals were single-caged under standardized conditions with controlled temperature (22±2° C.) on a 12/12 hours light/dark cycle (light on at 06:00 AM). Sterile standard pelleted chow (ssniff® Soest, Germany) and tap water acidified with HCl were allowed ad libitum.
Fatty Zucker rats of 24-31 weeks (mean: 25 weeks) age, adapted to the housing conditions, were well prepared for the study.
Catheters were implanted into the carotid artery of fatty Zucker rats under general anaesthesia (i.p. injection of 0.25 ml/kg b.w. Rompune® [2%], BayerVital, Germany and 0.5 ml/kg b.w. Ketamin 10, Atarost GmbH & Co., Twistringen, Germany). The animals were allowed to recover for one week. The catheters were flushed with heparin-saline (100 IU/ml) three times per week.
Placebo (1 ml saline, 0.154 mol/l) or escalating doses of glutaminyl pyrrolidine (5, 15 and 50 mg/kg b.w.) were administered to groups of N=8 fatty Zucker rats. 375 mg of glutaminyl pyrrolidine were dissolved in 1000 μl DMSO (E. Merck, Darmstadt; Germany [Dimethyl sulfoxide p.a.]). 10 ml saline were added and 1 ml aliquots, each containing 34.09 mg of glutaminyl pyrrolidine, were stored at −20° C. For preparation of the test substance, dose dependent aliquots were diluted in saline.
After overnight fasting, placebo or test substance were administered to the fatty Zucker rats via feeding tube orally (15 G, 75 mm; Fine Science Tools, Heidelberg, Germany) at −10 min An oral glucose tolerance test (OGTT) with 2 g/kg b.w. glucose (40% solution, B. Braun Melsungen, Melsungen, Germany) was administered at ±0 min via a second feeding tube. Venous blood samples from the tail veins were collected at −30 min, −15 min, ±0 min and at 5, 10, 15, 20, 30, 40, 60, 90 and 120 min into 20 μl glass capillaries, which were placed in standard tubes filled with 1 ml solution for blood glucose measurement.
Glucose levels were measured using the glucose oxidase procedure (Super G Glucose analyzer; Dr. Müller Gerätebau, Freital, Germany).
Statistical evaluations and graphics were performed with PRISM® 3.02 (GraphPad Software, Inc.). All parameters were analysed in a descriptive manner including mean and SD.
N=30 male Zucker rats (fa/fa), mean age 11 weeks (5-12 weeks), mean body weight 350 g (150-400 g), were purchased from Charles River (Sulzfeld, Germany). […]

## NC(=O)CC[C@H](N)C(=O)N1CCCC1 [glutaminyl pyrrolidine]
[1]; 37° C., 5*10^−5, 2.5*10^−5, 1.25*10^−5M
  half-life of the inhibitory potency in human plasma: no half-time could be determined
[1]; over 22 hours
  stability in human plasma: stable in human plasma over 22 hours
Diabetic Zucker rats; 5 mg/kg b.w. oral
  effect on glucose tolerance (OGTT): limited improvement of glucose tolerance
Diabetic Zucker rats; 5 mg/kg, 15 mg/kg and 50 mg/kg b.w. oral
  effect on blood glucose levels over escalating doses (OGTT): dose dependent lowering of elevated blood glucose levels
Diabetic Zucker rats; 15 mg/kg b.w. oral
  effect on glucose tolerance (OGTT): Significant lowering of elevated blood glucose levels
Diabetic Zucker rats; 50 mg/kg b.w. oral
  effect on glucose tolerance (OGTT): Significant lowering of elevated blood glucose levels
